Laboratory results taken from patent US6677316B2, “Adenosine derivatives and methods of administration” (SmithKline Beecham Corporation, priority 1998, dated 2004).

What was measured:
[1] = biological target: T1, human adenosine A3 receptor (Homo sapiens, UniProt P0DMS8); assay: Reporter gene assay (CRE/SPAP) in CHO cells, agonist potency relative to NECA, adenosine A3 receptor; format: cell-based; set-up: key: equipotent concentration ratio, NECA = 1; conditions: ECR = equipotent concentration ratio relative to NECA = 1, inhibition of forskolin-stimulated SPAP production
T1 construct: expressed in transfected cells; host or cells: Chinese hamster ovary (CHO) cells with CRE/SPAP/HYG reporter elements
T1 sequence (P0DMS8 1-318): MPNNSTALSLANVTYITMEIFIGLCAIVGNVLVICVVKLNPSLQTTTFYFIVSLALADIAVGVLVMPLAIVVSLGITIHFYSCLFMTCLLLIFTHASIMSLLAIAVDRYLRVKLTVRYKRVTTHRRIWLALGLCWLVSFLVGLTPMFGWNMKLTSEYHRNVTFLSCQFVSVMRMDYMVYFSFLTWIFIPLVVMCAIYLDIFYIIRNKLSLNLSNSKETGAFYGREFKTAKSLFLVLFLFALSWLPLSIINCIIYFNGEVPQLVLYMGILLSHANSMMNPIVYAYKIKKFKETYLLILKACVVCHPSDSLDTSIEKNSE
Method: (§1) Reporter Gene Experiments
(§2) Agonist activity was measured in Chinese hamster ovary (CHO) cells containing the CRE/SPAP/HYG (CRE=cyclic AMP response element; HYG=hygromycin resistance; SPAP=secreted placental alkaline phosphatase) reporter gene elements, which upon stimulation of cAMP levels produced SPAP. A cell line was used, which was stably transfected with either the human adenosine A1 receptor or the human adenosine A3 receptor in addition to the above elements. Cells were plated out in 96-well plates in culture medium and incubated at 37° C. for 1 hour. For measurement of potency, agonists were added to the appropriate wells at a concentration range of approximately 10^−10- 10^−5M. 15Min later, cAMP levels were stimulated by addition of a maximal concentration of forskolin. All cells were then incubated for a further 5 hours at 37° C., and cooled to room temperature, after which a substrate for the phosphatase (para-nitrophenol phosphate, pNPP), which is converted by SPAP to a coloured reagent) was then added and the 96-well -plates were read in a plate reader. From these readings, the concentration-dependence of the inhibition by the agonist for forskolin-stimulated SPAP production can be calculated. One of the agonists tested on each 96-well plate was the standard non-selective agonist, N-ethylcarboxamidoadenosine (NECA), and the potency of all test agonists is expressed relative to that of the NECA standard.
(§3) (ECR=equipotent concentration ratio relative to NECA=1)

[2] = biological target: T2, human adenosine A1 receptor (Homo sapiens, UniProt P30542); assay: Reporter gene assay (CRE/SPAP) in CHO cells, agonist potency relative to NECA, adenosine A1 receptor; format: cell-based; set-up: key: equipotent concentration ratio, NECA = 1; conditions: ECR = equipotent concentration ratio relative to NECA = 1, inhibition of forskolin-stimulated SPAP production
T2 construct: expressed in transfected cells; host or cells: Chinese hamster ovary (CHO) cells with CRE/SPAP/HYG reporter elements
T2 sequence (P30542 1-326): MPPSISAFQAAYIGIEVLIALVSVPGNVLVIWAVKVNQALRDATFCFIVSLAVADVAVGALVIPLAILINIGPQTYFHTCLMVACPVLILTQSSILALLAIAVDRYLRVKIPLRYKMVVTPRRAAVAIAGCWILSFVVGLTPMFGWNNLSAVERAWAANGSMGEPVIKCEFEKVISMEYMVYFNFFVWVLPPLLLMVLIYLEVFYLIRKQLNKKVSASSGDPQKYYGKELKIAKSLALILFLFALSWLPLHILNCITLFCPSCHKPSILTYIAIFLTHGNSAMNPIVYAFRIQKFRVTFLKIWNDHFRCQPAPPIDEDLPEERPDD
Method: as §1, §2, §3

| SMILES | Adenosine A3 receptor ECR* [1] | Adenosine A1 receptor ECR* [2] |
| --- | --- | --- |
| CC(C)(C)c1nnc([C@H]2O[C@@H](n3cnc4c(NC5CCOCC5)ncnc43)[C@H](O)[C@@H]2O)[nH]1 [Example 139, (2R,3S,4R,5R)-2-[5-(tert-butyl)-4H-1,2,4-triazol-3-yl]-5-[6-(tetrahydro-2H-pyran-4-ylamino)-9H-purin-9-yl]tetrahydrofuran-3,4-diol] | 228 | 10.64 |
| CCNS(=O)(=O)CCNc1ncnc2c1ncn2[C@@H]1O[C@H](c2cc(C(C)(C)C)no2)[C@@H](O)[C@H]1O [Example 177, 2-[(9-{(2R,3R,4S,5S)-5-[3-(tert-butyl)isoxazol-5-yl]-3,4-dihydroxy-tetrahydrofuran-2-yl}-9H-purin-6-yl)amino]-N-ethylethane-sulfonamide] | 122 | 2.01 |
| Cc1nnc([C@H]2O[C@@H](n3cnc4c(N[C@H]5CCC[C@@H]5O)ncnc43)[C@H](O)[C@@H]2O)o1 [Example 132, (2R,3R,4S,5S)-2-(6-{[(1 S,2S)-2-hydroxycyclopentyl]amino}-9H-purin-9-yl)-5-(5-methyl-1,3,4-oxadiazol-2-yl)tetrahydrofuran-3,4-diol] | >22.4 | 0.53 |
| CCOC(=O)N1CCC(Nc2ncnc3c2ncn3[C@@H]2O[C@H](c3nnc(C(F)(F)F)o3)[C@@H](O)[C@H]2O)CC1 [Example 180, ethyl 4-[(9-{(2R,3R,4S,5S)-3,4-dihydroxy-5-[5-(trifluoromethyl)-1,3,4-oxadiazol-2-yl]-tetrahydrofuran-2-yl}-9H-purin-6-yl)amino]-piperidine-1-carboxylate] | >471 | 18.1 |
| O[C@@H]1[C@H](O)[C@@H](c2nnc(C(F)(F)F)o2)O[C@H]1n1cnc2c(NC3CCCC3)ncnc21 [Example 178, (2R,3R,4S,5S)-2-[6-(cyclo-pentylamino)-9H-purin-9-yl]-5-[5-(trifluoromethyl)-1,3,4-oxadiazol-2-yl]-tetrahydrofuran-3,4-diol] | >471 | 7.42 |
| CC(C)(C)c1nnc([C@H]2O[C@@H](n3cnc4c(Nc5ccc(Cl)cc5F)ncnc43)[C@H](O)[C@@H]2O)[nH]1 [Example 67, (2R,3S,4 R,5 R)-2-[5-(tert-butyl)-4H-1,2,4-triazol-3-yl]-5-[6-(4-chloro-2-fluoroanilino)-9H-purin-9-yl]tetrahydrofuran-3,4-diol] | 827.66 | 9.8 |
